Experimental data taken from patent US6380195B1, “Method of treating heart failure with endothelin antagonists” (Banyu Pharmaceutical Co., Ltd., priority 1996, dated 2002).
“Also recorded” adds a separate entry of the source. Marks after values point to notes of the source that are not given here.

Assays:
[1] = tested on: conscious pigs with heart failure; assay: Hemodynamic study in conscious pigs with heart failure (serial myocardial infarctions plus intermittent tachycardic pacing); type: in vivo, pig; conditions: for LV End-Diastolic Diameter, change from baseline / LV End-Systolic Diameter, change from baseline / LV Fractional Shortening, change from baseline / Vcf, change from baseline: n = 3; for Cardiac Index, change from baseline / Heart Rate, change from baseline / LV dP/dt, change from baseline / Left Atrial Pressure, change from baseline / Mean Arterial Pressure, change from baseline / Total Peripheral Resistance, change from baseline: n = 4
Method: Five farm pigs of either of sex and weighing 34.5±2.5 kg were sedated with ketamine hydrochloride (25 mg/kg, i.m.) and xylazine (6 mg/kg, i.m.). After tracheal intubation, general anesthesia was maintained with isoflurane (1.5-2.0 vol % in oxygen). Using sterile surgical technique, a left thoracotomy was performed at the fifth intercostal space. Catheters made of Tygon tubing (Norton Performance Plastics Co., Akron, Ohio) were implanted in the descending aorta, left and right atria for measurement of pressures. A solid-state miniature pressure gauge (Konigsberg Instruments Inc., Pasadena, Calif.) was implanted in the left ventricular (LV) chamber to obtain LV pressure and the rate of change of LV pressure (LV dP/dt). A flow probe (Transonic System Inc., Ithaca, N.Y.) was placed around the main pulmonary artery for measurement of blood flow. One pair of piezoelectric ultrasonic dimension crystals were implanted on opposing anterior and posterior endocardial regions of the LV to measure the short-axis internal diameter. Proper alignment of the endocardial crystals was achieved during surgical implantation by positioning the crystals so as to obtain a signal with the greatest amplitude and shortest transit time. A pacing lead (model 5069, Medtronic Inc., Minneapolis, Minn.) was attached to the right ventricular free wall, and stainless steel pacing leads were attached to the left atrial appendage. The left circumflex coronary artery was isolated and two hydraulic occluders, made of Tygon tubing, were implanted proximally and distally to the first obtuse marginal branch. The wires and catheters were externalized between the scapulae, the incision was closed in layers, and air was evacuated from the chest cavity.
Hemodynamic recordings were made using a data tape recorder (RD-130TE, TEAC, Montebello, Calif.) and a multiple-channel oscillograph (MT95K2, Astro-Med, West Warwick, R.I.). Aortic and left atrial pressures were measured using strain gauge manometers (Statham Instruments, Oxnard, Calif.), which were calibrated in vitro using a mercury manometer, connected to the fluid-filled catheters. The solid-state LV pressure gauge was cross-calibrated with aortic and left atrial pressure measurements. LV dP/dt was obtained by electronically differentiating the LV pressure signal. Blood flow was measured using a volume flow meter (T208, Transonic System Inc., Ithaca, N.Y.). Mean arterial pressure, left atrial pressures, and pulmonary blood flow (cardiac output) were measured using an amplifier filter. Stroke volume was calculated as the quotient of cardiac output and heart rate. Cardiac output was normalized by body weight to yield cardiac index. LV dimension was measured with an ultrasonic transit-time dimension gauge (Model 203, Triton Technology Inc., San Diego, Calif.). Total peripheral resistance was calculated as the quotient of mean arterial pressure and cardiac output. LV short-axis end-diastolic dimension (EDD) was measured at the beginning of the upstroke of the LV dP/dt signal. LV end-systolic dimension (ESD) was measured at the time of maximum negative dP/dt. The percent shortening of LV internal diameter was calculated as (EDD-ESD)/EDD*100. LV mean velocity of circumferential fiber shortening (Vcf) was calculated from the dimension measurements using the following formula:(EDD-ESD)/EDD/Ejection time (sec^−1). Ejection time was measured as the interval between maximum and minimum LV dP/dt. A cardiotachometer triggered by the LV pressure pulse provided instantaneous and continuous records of heart rate.
Experiments were initiated 10-14 days after surgery, when the pigs were fully recovered from surgery. During the post-operative period, the pigs were introduced to a sling for training. Heart failure was produced by progressive myocardial ischemia induced by two coronary artery occlusions followed by intermittent ventricular pacing.

[2] = tested on: ET receptor; assay: Endothelin-1 (ET-1) challenge before and after Compound 1 in conscious pigs with heart failure; type: in vivo, pig
Method: Hemodynamic experiments were performed after 2 cycles of tachycardic pacing in the presence of myocardial ischemia injury, after the animal had achieved a stable state of heart failure. During the experiments, the pigs were conscious and quietly restrained in a sling. The test compound is dissolved in saturated NaHCO3 (10% by Vol) and 0.9% saline (90% by Vol) at a concentration of 2 mg/ml, was studied in four conscious pigs with heart failure. A dose of 0.5 mg/kg was injected intravenously over a period of 2 minutes, and hemodynamics were continuously recorded before and 90 minutes following injection of the test compound in all 4 pigs. In two of these pigs, recording continued until 3 hours following injection of the test compound. The vehicle was tested on separate days. The effects of 0.1 to 0.5 μg/kg cumulative bolus doses in 0.1 μg/kg steps of endothelin-1 (Peptide Institute, Inc., Osaka, Japan) were also examined on separate days before and 90 minutes after injection of the test compound in three pigs during development of heart failure to characterize the extent of endothelin block by the test compound. ET-1 was dissolved in 0.1 N NaHCO3 ([…]) and 0.9% saline (95% by Vol) at a concentration of 20 μg/ml.
Hemodynamic experiments were performed after 2 cycles of tachycardic pacing in the presence of myocardial ischemia injury, after the animal had achieved a stable state of heart failure. During the experiments, the pigs were conscious and quietly restrained in a sling. Compound 1, dissolved in saturated NaHCO3 (10% by Vol) and 0.9% saline (90% by Vol) at a concentration of 2 mg/ml, was studied in four conscious pigs with heart failure. A dose of 0.5 mg/kg was injected intravenously over a period of 2 minutes, and hemodynamics were continuously recorded before and 90 minutes following injection of Compound 1 in all 4 pigs. In two of these pigs, recording continued until 3 hour following injection of Compound 1. The vehicle was tested on separate days. The effects of 0.1 to 0.5 μg/kg cumulative bolus doses in 0.1 μg/kg steps of endothelin-1 (Peptide Institute, Inc., Osaka, Japan) were also examined on separate days before and 90 minutes after injection of Compound 1 in three pigs during development of heart failure to characterize the extent of ET block by Compound 1. ET-1was dissolved in 0.1 N NaHCO3 ([…]) and 0.9% saline (95% by Vol) at a concentration of 20 μg/ml. For comparative purpose, the effects of intravenous injection of Compound 2 (enalaprilat), at doses of 1 mg/kg and 4 mg/kg, were studied on different days in three of the pigs that were used to study […] and in one additional pig. Compound 2 was dissolved in 0.9% saline.

[3] = 0.5 mg/kg i.v., 60 minutes after administration
[4] = Compound 1 0.5 mg/kg i.v., 15 min
[5] = Compound 1 0.5 mg/kg i.v., 60 min
[6] = ET-1 cumulative i.v. bolus 0.1 to 0.5 μg/kg, without Compound 1

## CCCCc1ccc2c(n1)[C@@H](c1ccc(OC)cc1CC(C)C(=O)O)[C@H](C(=O)O)[C@H]2c1ccc2c(c1)OCO2 (relative stereo) [Compound 1, (+)-(5S*, 6R*, 7R*)-2-butyl-6-carboxy-7-[2-(2-carboxypropyl)-4-methoxyphenyl]-5-(3,4-methylenedioxyphenyl)cyclopenteno[1,2-b]pyridine]
[1]; 0.5 mg/kg i.v.
  Vcf, increase: 12±2%
  effect on LV dP/dt (in words): not affected
  effect on LV end-diastolic diameter (in words): not affected
  effect on LV fraction shortening (in words): not affected
  effect on LV systolic diameter (in words): not affected
  effect on elevated vascular resistance of heart failure (in words): complete restoration of the elevated vascular resistance of heart failure back to pre-heart failure control values; also recorded: reduced the elevated vascular resistance
  effect on myocardial contractility (in words): did not affect myocardial contractility
  heart rate, increase (in words): not statistically significant
  left atrial pressure, decrease (in words): not statistically significant
[1]; [3]
  cardiac index, increase: 17±4%
  mean arterial pressure, decrease: 10±2%
  total peripheral resistance, decrease: 22±3%
[1]; Compound 1 0.5 mg/kg i.v.
  reduction in total peripheral resistance compared with Compound 2 (1 mg/kg or 4 mg/kg i.v.): greater than that induced by either dose of Compound 2
[1]; [4]
  LV End-Diastolic Diameter, change from baseline: +0.1 ± 0.2 mm
  LV End-Systolic Diameter, change from baseline: −0.3 ± 0.3 mm
  LV Fractional Shortening, change from baseline: +0.6 ± 0.2%
  Vcf, change from baseline: 0.05 ± 0.01* sec^−1
  Cardiac Index, change from baseline: +14 ± 2 ml/min/kg
  Heart Rate, change from baseline: +5 ± 5 beat/min
  LV dP/dt, change from baseline: +25 ± 40 mmHg/sec
  Left Atrial Pressure, change from baseline: −4 ± 2 mmHg
  Mean Arterial Pressure, change from baseline: −10 ± 1 mmHg
  Total Peripheral Resistance, change from baseline: −0.25 ± 0.03 mmHg/ml/min/kg
[1]; [5]
  LV End-Diastolic Diameter, change from baseline: +0.2 ± 0.3 mm
  LV End-Systolic Diameter, change from baseline: −0.2 ± 0.3 mm
  LV Fractional Shortening, change from baseline: +0.7 ± 0.2%
  Vcf, change from baseline: +0.07 ± 0.02* sec^−1
  Cardiac Index, change from baseline: +13 ± 2 ml/min/kg
  Heart Rate, change from baseline: +7 ± 5 beat/min
  LV dP/dt, change from baseline: 56 ± 65 mmHg/sec
  Left Atrial Pressure, change from baseline: −2 ± 2 mmHg
  Mean Arterial Pressure, change from baseline: −8 ± 1 mmHg
  Total Peripheral Resistance, change from baseline: −0.24 ± 0.05 mmHg/ml/min/kg
[2]; Compound 1 0.5 mg/kg i.v., ET-1 cumulative i.v. bolus, total dose 0.5 μg/kg
  hemodynamic responses to ET-1 after administration of the antagonist: markedly attenuated

## C[C@H](N[C@@H](CCc1ccccc1)C(=O)O)C(=O)N1CCC[C@H]1C(=O)O [Compound 2, enalaprilat, reference compound]
[1]; 1 mg/kg or 4 mg/kg i.v., throughout 90-minute observation period, not dose-dependent
  effect on total peripheral resistance (in words): significantly reduce the total peripheral resistance

## CC[C@H](C)[C@H](NC(=O)[C@H](CC(=O)O)NC(=O)[C@H](CC(C)C)NC(=O)[C@H](Cc1c[nH]cn1)NC(=O)[C@@H]1CSSC[C@H](N)C(=O)N[C@@H](CO)C(=O)N[C@H]2CSSC[C@H](NC(=O)[C@H](CCC(=O)O)NC(=O)[C@H](CCCCN)NC(=O)[C@H](CC(=O)O)NC(=O)[C@H](CCSC)NC(=O)[C@H](CC(C)C)NC(=O)[C@H](CO)NC(=O)[C@H](CO)NC2=O)C(=O)N[C@@H](C(C)C)C(=O)N[C@@H](Cc2ccc(O)cc2)C(=O)N[C@@H](Cc2ccccc2)C(=O)N1)C(=O)N[C@H](C(=O)N[C@@H](Cc1c[nH]c2ccccc12)C(=O)O)[C@@H](C)CC [ET-1, endothelin-1]
[2]; [6]
  effect of ET-1 on heart rate: decreased, but not dose-dependently
  effect of ET-1 on mean arterial pressure: significant dose-dependent increases
  effect of ET-1 on mean left atrial pressure: significant dose-dependent increases
  effect of ET-1 on total peripheral resistance: significant dose-dependent increases
